Positions count from the first letter of the chain named. In names and notes the source's numbering stands.
How the values were obtained:
[1] = Plasma estradiol levels after s.c. estradiol benzoate; assay type: in vivo, rat; conditions: OVX rats, mean±SEM
TG neurons [2] = test: PRL release from cultured TG neurons (RIA); assay type: cell-based, rat; conditions: 300 nM capsaicin or 25 mM KCl; for release of immunoreactive PRL: neurons from OVX rats cultured in the absence of E2; for PRL released from TG neurons: neurons of proestrous rats cultured with 50 nM E2, 15 min
Procedure: PRL is known to be released from cells of the anterior pituitary (Zacur et al. 1976) and from extrapituitary sites (Ben-Jonathan et al., 2002; Zinger et al., 2003; Torner et al., 2004). To determine whether PRL protein is present in a releasable pool in TG sensory neurons, cultured TG neurons derived either from proestrous rats (cultured in the presence of 50 nM E2) or from OVX rats (cultured without E2) were exposed to 300 nM capsaicin or 25 mM KCl buffer. The results obtained from these experiments are depicted in FIG. 2D, which indicate that a substantial amount of PRL is released from TG neurons of proestrous rats cultured in the presence of E2 upon stimulation with either capsaicin (158±12% of vehicle) or KCL (154±16% of vehicle). […] Data are presented as mean % of basal release±SEM (n=6/group, *=p<0.05 and **=p<0.01; one-way ANOVA with Bonferroni's post hoc test).
Rat trigeminal ganglia (TG) primary cultures: The TG from ovariectomized or intact female rats were quickly removed after decapitation and neuronal cultures were prepared as previously described (Fehrenbacher et al., 2005; Patwardhan et al., 2005). The trypsin treatment was omitted in TG cultures prepared for electrophysiological recording and Ca^2+ imaging. Cells were plated on 24 well Poly-D-Lysine coated plates (for iCGRP experiments), 6 well Poly-D-Lysine plates (for PRL release experiments), Poly-D-Lysine/laminin-coated coverslips (for single cell studies) or 10 cm plates (for phosphorylation experiments), respectively. The TG cultures were maintained at 37° C. and 5% CO2. […] The media were replaced at the end of 24 h and then 48 h later.
PRL Release Experiments: These experiments were performed at day 5 with TG cultures from OVX or intact female rats using Krebs buffer (NaCl 135 mM, KCl 3.5 mM, MgCl2 1 mM, NaH2PO4 1 mM, CaCl2 2.5 mM, BSA 0.1%, dextrose 3.3 mM, ascorbic acid 0.1 mM, HEPES 10 mM, thiorphan 16 μM; pH 7.4). After two initial washes, a 15 min baseline sample was collected. Cells were then exposed to 300 nM capsaicin (Sigma) or 25 mM KCl and incubated at 37° C. for an additional 15 min followed by collection of the samples. The 1 ml collected samples were lyophilized and resuspended in 250 ul of water and immediately frozen in −80° C. Frozen samples were sent to Dr. A. F. Parlow (NHPP, Harbor-UCLA) to have levels of PRL determined by a well-validated radioimmunoassay (RIA) with sensitivity range from 1-100 ng/ml. Results are representative of 6 independent experiments.

PRL-R [3] = target: T1, PRL-R (Rattus norvegicus, UniProt P05710); test: Calcium imaging, block of PRL potentiation by PRL-R antagonist; assay type: cell-based; conditions: for block of PRL potentiation of capsaicin-evoked Ca2+ influx: antagonist 800 nM co-treated with PRL 40 nM, capsaicin 30 nM
T1 construct: endogenous in cells; host or cells: primary rat trigeminal ganglion neurons
T1 sequence (P05710 20-610): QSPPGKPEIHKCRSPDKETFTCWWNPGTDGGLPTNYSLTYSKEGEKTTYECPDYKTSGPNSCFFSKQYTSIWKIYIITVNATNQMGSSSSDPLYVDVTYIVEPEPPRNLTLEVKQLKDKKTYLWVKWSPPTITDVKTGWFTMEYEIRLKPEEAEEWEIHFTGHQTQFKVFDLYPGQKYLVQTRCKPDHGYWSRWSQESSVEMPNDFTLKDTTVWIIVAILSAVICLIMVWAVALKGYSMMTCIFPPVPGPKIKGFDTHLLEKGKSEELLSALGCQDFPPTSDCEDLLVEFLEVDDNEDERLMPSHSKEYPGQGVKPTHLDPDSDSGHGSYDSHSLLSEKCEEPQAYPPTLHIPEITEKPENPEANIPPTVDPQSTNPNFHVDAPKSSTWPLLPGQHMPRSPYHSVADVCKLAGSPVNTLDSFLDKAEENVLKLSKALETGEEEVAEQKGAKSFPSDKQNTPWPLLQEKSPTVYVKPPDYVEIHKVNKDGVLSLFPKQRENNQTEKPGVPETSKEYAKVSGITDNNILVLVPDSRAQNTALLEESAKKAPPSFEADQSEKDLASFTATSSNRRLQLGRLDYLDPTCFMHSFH
Procedure: To determine whether PRL augmentation of capsaicin responses occurs through the PRL-R (i.e., whether PRL-signaling could account for the observed effects of PRL on nociceptors sensitization), Ca^2+ imaging experiments were performed on neurons in the presence of a molar excess of a full PRL-R antagonist (Δ 1-9-G129R-hPRL) (Bernichtein et al., 2003; Goffin et al., 2005). Cultured neurons were treated as described in the previous experiment. In addition, neurons were co-treated with PRL and the PRL-R antagonist 1-9-Δ-G 129R-hPRL (800 nM). […] Data are presented as mean % of vehicle±SEM (n=19-40, *=p<0.05; two-way ANOVA).
Calcium Imaging: TG cells cultured on coverslips were loaded with the cell-permeable calcium sensitive dye FURA 2-AM (1 ug/ml) (Molecular Probes, Eugene, Oreg.) for 30 min at 37° C. in Standard External Solution (SES) of the following composition in mM: 140 NaCl, 5 KCl, 2 CaCl2, 1 MgCl2, 10 glucose and 10 HEPES, pH 7.4. Coverslips containing cells were placed in a chamber with constant infusion of SES. Images were captured by a Nikon Eclipse TE-2000 microscope fitted with a 20×/NA 0.75 Fluor objective. Fluorescence images were collected in 5 sec intervals throughout the experiment, analyzed, and the F340/F380 ratio calculated by the Methafluor Software (MethaMorph, Web Universal Imaging Corporation, Downingtown, Pa.). Capsaicin was delivered locally to the cells, whereas PRL was delivered into the bath solution. The magnitude of calcium influx was determined by subtracting the averaged baseline 30 sec prior to the capsaicin stimulus from the peak achieved by the capsaicin stimulation for each cell (ratiometric method, ΔF340/F380).

PRL-R [4] = target: T1, PRL-R; test: Patch clamp Icap, G129R-PRL against PRL sensitization; assay type: cell-based
Procedure: (§1) Patch Clamp Electrophysiology: All recordings were performed in whole-cell voltage-clamp (Vh=−60 mV) configuration. Recordings were acquired at 22-24° C. from the somata of neurons (15-45 pF) using an Axopatch200B amplifier and pCLAMP9.0 software (Axon Instruments, Union City, Calif.). Data were filtered at 0.5 kHz and sampled at 2 kHz. Borosilicate pipettes (Sutter, Novato, Calif.) were polished to resistances of 3-5 MΩ in pipette solution. Access resistance was compensated (40-80%) to 7-10 MΩ values when appropriate. Cell diameters were calculated using d=√[100*Cm/π], where d (μm) is cell diameter and Cm (pF) is membrane capacitance.
Since it is possible that this effect is observed only in full PRL-R antagonists, it is of interest to determine the effectiveness of partial PRL-R antagonists in blocking PRL-mediated nociceptor sensitization. To this end, the ability of the partial PRL […] (G129R-PRL) to inhibit PRL-induced increase in sensitivity to capsaicin was assessed. FIG. 10 summarizes the effect of administering PRL, human G129R-PRL, or their combination, on Icap. G129R-PRL acts as either a partial or full antagonist, depending on the cellular context of the experimental system (Goffin, Bernichtein et al. 2003).

TG neurons [5] = test: Patch clamp, capsaicin-induced currents (Icap); assay type: cell-based, rat
Procedure: Since application of PRL rapidly increases capsaicin-induced calcium accumulation and neuropeptide release, the role of PRL in modulating capsaicin-induced currents (Icap) was examined. TRPV1 desensitization of cultured TG neurons was induced through the repeated application of 100 nM capsaicin to the cultures (Vellani et al., 2001; Bonnington and McNaughton, 2003). The sub-maximal concentration of capsaicin used was effective in inducing desensitization and permitted the investigation PRL-evoked re-sensitization or further sensitization of TRPV1. […] Data are presented as mean±SEM of PRL-treated ΔIcap (3rd Icap-2^ndIcap) normalized to vehicle treated ΔIcap, (n=8-12/group, *=p<0.05 and **=p<0.01; two-way ANOVA). […] Acutely dissociated TG neurons from female rats were locally pretreated with vehicle or PRL (40 nM) for 60 sec, washed for 60 sec and subjected to a single capsaicin pulse (40 sec, 0.1 nM-5 μM). Data are shown as mean±SEM (n=12-20/group, *=p<0.05 and ***=p<0.001 vehicle vs. PRL; two-way ANOVA). FIGS. 5C and 5D depict representative traces of Icap recordings from intact (FIG. 5C) and OVX (FIG. 5D) female rat TG neurons. Concentration of applied CAP and PRL are indicated. The duration CAP and PRL treatment was 30 sec and 60 sec, respectively. The magnitude of the second capsaicin-evoked inward currents (Icap) peak was subtracted from the third Icap peak to calculate the difference (ΔIcap). Data were normalized to the vehicle treated ΔIcap.
as §1
Standard external solution (SES) had the composition as described above. […] Drugs were applied using a fast, computer controlled pressure-driven 8-channel system (ValveLink8; AutoMate Scientific, San Francisco, Calif.).
FIG. 11B summarizes the effect of adding rhPRL on Icap of cultured TG neurons from male, female and OVX female rats. Number of recorded neurons and neurons in which effects were observed are indicated above the bars. The recordings were performed in whole-cell voltage clamp c(Vh=−60 mV) configuration. Solutions are SES and SIS.

**Q.** With `C[C@]12CC[C@@H]3c4ccc(OC(=O)c5ccccc5)cc4CC[C@H]3[C@@H]1CC[C@@H]2O` [17-beta-estradiol 3-benzoate] as the molecule, how does the plasma estradiol levels ([1]; 2 μg/kg s.c. daily for 10 days) read?
**A.** 1.89 ± 0.36 pg/mL

**Q.** And the plasma estradiol levels ([1]; 20 μg/kg s.c. daily for 10 days)?
**A.** 59 ± 17.1 pg/mL

**Q.** And the plasma estradiol levels ([1]; 80 μg/kg s.c. daily for 10 days)?
**A.** 110 ± 36.6 pg/mL

**Q.** For `[Cl-].[K+]` [KCL, KCl], which “release of immunoreactive PRL” value (TG neurons [2]) is on record?
**A.** no detectable release

**Q.** What about the “PRL released from TG neurons” value (TG neurons [2]) of the same molecule?
**A.** 154±16 % of vehicle

**Q.** Which “release of immunoreactive PRL” value (TG neurons [2]) does the source give for `COc1cc(CNC(=O)CCCC/C=C/C(C)C)ccc1O` [capsaicin] here?
**A.** no detectable release

**Q.** And the “PRL released from TG neurons” value (TG neurons [2])?
**A.** 158±12 % of vehicle

B1: Δ 1-9-G129R-hPRL: full PRL-R antagonist, human PRL variant synthesized as described (Bernichtein et al., 2003; Goffin et al., 2005) (protein)
chain: LPICPGGAARCQVTLRDLFDRAVVLSHYIHNLSSEMFSEFDKRYTHGRGFITKAINSCHTSSLATPEDKEQAQQMNQKDFLSLIVSILRSWNEPLYHLVTEVRGMQEAPEAILSKAVEIEEQTKRLLERMELIVSQVHPETKENEIYPVWSGLPSLQMADEESRLSAYYNLLHCLRRDSHKIDNYLKLLKCRIIHNNNC
**Q.** What does the source list for B1?
**A.** effect of antagonist on its own on capsaicin-evoked Ca2+ influx (PRL-R [3]; 800 nM, without PRL): had no effect on its own; block of PRL potentiation of capsaicin-evoked Ca2+ influx (PRL-R [3]): significantly blocked PRL potentiation of capsaicin-evoked Ca^2+ influx; block of PRL potentiation of capsaicin-evoked Ca2+ influx (PRL-R [3]; listed as 1-9-Δ-G129R-hPRL): significantly blocked

B2: G129R-PRL: human prolactin variant, partial or full PRL-R antagonist / partial agonist; sequence in FIG. 9B (SEQ ID NO: 48) (protein, listed as Homo sapiens)
chain: B1 chain
**Q.** Which “effect on Icap in the absence of rPRL” value (PRL-R [4]; 3 of 3 examined neurons) does the source give for B2 here?
**A.** displayed partial agonist effects

**Q.** And the “reduction of the PRL effect on Icap” value (PRL-R [4]; G129R-PRL 16 nM co-applied with rPRL 4 nM, observed in 6 of 7 neurons)?
**A.** about 40%

B3: rhPRL: recombinant human PRL (protein, UniProt P01236 29-227, looked up)
Prolactin: B1 chain with R129G
**Q.** Which results are given for B3?
**A.** sensitization of capsaicin-evoked Icap (TG neurons [5]; cultured TG neurons from male and female rats, capsaicin 100 nM (FIG. 11A)): is able to sensitize cultured neurons isolated from male and female TG neurons; concentration dependence of Icap increase (TG neurons [5]; male and female TG neurons, varying rhPRL concentrations): dose-dependent increases in Icap
